Patent publication US20240174690A1, “ANNULATED 2-AMINO-3-CYANO THIOPHENES AND DERIVATIVES FOR THE TREATMENT OF CANCER” (BOEHRINGER INGELHEIM INTERNATIONAL GMBH, priority 2021, published 2024)

Experiments:
[1] = test system: AsPC-1 cells; assay: AsPC-1 CTG proliferation assay (120 h) (pancreatic cancer, G12D); format: cell-based; conditions: Homo sapiens, ASPC1
Procedure, shortened: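 CellTiter-Glo luminescence, normalised to DMSO wells, measured viability after 120 h compound exposure. Cells were AsPC-1 pancreatic cancer (G12D) plated at 2000 per well in RPMI/10% FCS the day before dosing. IC50 derived by four-parameter regression.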

[2] = Caco-2 assay (permeability PappAB, PappBA, efflux ratio); format: in vitro ADME; conditions: human, Caco-2, 10 μM test compound, pH 7.4; for Papp A→B at 90 min, 10 μM: apical to basolateral; for efflux ratio at 90 min, 10 μM: efflux ratio PappBA/PappAB, read-out: Caco ER
Procedure, shortened: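 Bidirectional permeability (apical-to-basolateral and reverse) through polarized Caco-2 monolayers, BSA 0.25% on each side, 37 °C. Donor and receiver sampled at 0-90 min after 25-30 min preincubation, analysed by HPLC/MS/MS. Apparent permeabilities derived from transfer rate normalised to area and t=0 donor concentration; ER taken as PappBA over PappAB.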

[3] = Metabolic (microsomal) stability assay, human liver microsomes (HLM); format: in vitro ADME; conditions: predicted clearance as percent of liver blood flow, 1 μM
Procedure, shortened: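 LC-MS/MS tracked parent disappearance at 0, 5, 15, 30 and 60 min in NADPH-initiated incubations with 1 mg/mL human microsomal protein and 1 μM compound at 37°C, pH 7.5. First-order fits gave intrinsic clearance, which was scaled up and reported as % QH. NADPH-free controls were also run.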

[4] = test system: KRAS G12C-dependent Ba/F3 cells; assay: Ba/F3 proliferation assay, KRAS G12C; format: cell-based; conditions: Mus musculus, BaF3, 72 h, AlamarBlue
Procedure, shortened: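 Proliferation of mutant-KRAS-driven Ba/F3 cells cultured without IL-3 is followed with AlamarBlue after compound addition. Curves are fitted from duplicate wells.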

Row | IC50 [1] [nM] | Papp A→B at 90 min, 10 μM [2] [×10⁻⁶ cm/s] | HLM QH [3] [%] | IC50 [4] [nM] | efflux ratio at 90 min, 10 μM [2] | SMILES
1 | 1660 | 1.4 | <24 | 7 | 20.7 | C[C@H](Oc1cc(-c2ccn(C[C@@H](C)O)n2)nc(-c2noc3c2CCC[C@@]32CCCc3sc(N)c(C#N)c32)n1)[C@@H]1CCCN1C [II-117]
2 | 3170 | – | 25 | 25 | 0.7 | C[C@H](Oc1cc(-n2cc(C3CC3)nn2)nc(-c2noc3c2CCC[C@@]32CCCc3sc(N)c(C#N)c32)n1)[C@@H]1CCCN1C [II-118]
3 | 1320 | 1 | <24 | 8 | 1.1 | C[C@H](Oc1cc(-n2ccc(-c3ccccn3)n2)nc(-c2noc3c2CCC[C@@]32CCCc3sc(N)c(C#N)c32)n1)[C@@H]1CCCN1C [II-119]
4 | 3510 | 8 | 47 | 27 | 1.5 | C[C@H](Oc1cc(-n2ccnc2)nc(-c2noc3c2CCC[C@@]32CCCc3sc(N)c(C#N)c32)n1)[C@@H]1C[C@@H](F)CN1C [II-120]
5 | 3070 | 6.3 | 39 | 13 | 3.7 | COCc1cn(-c2cc(O[C@@H](C)[C@@H]3CCCN3C)nc(-c3noc4c3CCC[C@@]43CCCc4sc(N)c(C#N)c43)n2)nn1 [II-121]
6 | 3350 | 7.9 | 35 | 21 | 3.2 | CNC(=O)c1cn(-c2cc(O[C@@H](C)[C@@H]3CCCN3C)nc(-c3noc4c3CCC[C@@]43CCCc4sc(N)c(C#N)c43)n2)nn1 [II-122]
7 | 1540 | – | 28 | 15 | 4.6 | C[C@H](Oc1cc(-n2cc(-c3cccnc3)nn2)nc(-c2noc3c2CCC[C@@]32CCCc3sc(N)c(C#N)c32)n1)[C@@H]1CCCN1C [II-123]
8 | 2100 | 1 | 37 | 9 | 33.7 | C[C@H](Oc1cc(-n2cc(Cn3cncn3)nn2)nc(-c2noc3c2CCC[C@@]32CCCc3sc(N)c(C#N)c32)n1)[C@@H]1CCCN1C [II-124]

The next lines start with the compound.

Row | SMILES | IC50 [1] [nM] | Papp A→B at 90 min, 10 μM [2] [×10⁻⁶ cm/s] | HLM QH [3] [%] | IC50 [4] [nM] | efflux ratio at 90 min, 10 μM [2]
9 | C[C@H](Oc1cc(-c2cccc(CO)c2)nc(-c2noc3c2CCC[C@@]32CCCc3sc(N)c(C#N)c32)n1)[C@@H]1CCCN1C [II-97] | 2360 | < 9.7 | <24 | 58 | –
10 | C[C@H](Oc1cc(-c2ccn(C3CC3)n2)nc(-c2noc3c2CCC[C@@]32CCCc3sc(N)c(C#N)c32)n1)[C@@H]1CCCN1C [II-98] | 3340 | – | <24 | 23 | 1.5
11 | C[C@H](Oc1cc(N2CCC(C#N)C2)nc(-c2noc3c2CCC[C@@]32CCCc3sc(N)c(C#N)c32)n1)[C@@H]1CCCN1C (stereo partly drawn) [II-99] | 3240 | 1.1 | <24 | 28 | 23.6
12 | C[C@H](Oc1cc(-c2ccc(N)nc2)nc(-c2noc3c2CCC[C@@]32CCCc3sc(N)c(C#N)c32)n1)[C@@H]1CCCN1C [II-101] | 2990 | 2 | 31 | 51 | 7
13 | Cc1cn(-c2cc(O[C@@H](C)[C@@H]3CCCN3C)nc(-c3noc4c3CCC[C@@]43CCCc4sc(N)c(C#N)c43)n2)nn1 [II-106] | 9450 | 15 | 44 | 31 | 1.1
14 | CO[C@@H]1C[C@@H]([C@H](C)Oc2cc(-c3ccn(C4COC4)n3)nc(-c3noc4c3CCC[C@@]43CCCc4sc(N)c(C#N)c43)n2)N(C)C1 [II-107] | 7270 | 10 | 45 | 5 | 2.4
15 | C[C@H](Oc1cc(-c2ccn(C3COC3)n2)nc(-c2noc3c2CCC[C@@]32CCCc3sc(N)c(C#N)c32)n1)[C@@H]1CCCN1C [II-109] | 3830 | 3.5 | <24 | 13 | 7.4
16 | C[C@H](Oc1cc(-n2ccc(Br)n2)nc(-c2noc3c2CCC[C@@]32CCCc3sc(N)c(C#N)c32)n1)[C@@H]1CCCN1C [II-110] | 2820 | – | 47 | 14 | 0.5
17 | C[C@H](Oc1cc(-c2cnsc2)nc(-c2noc3c2CCC[C@@]32CCCc3sc(N)c(C#N)c32)n1)[C@@H]1CCCN1C [II-111] | 2810 | – | <24 | 10 | 1.5
18 | C[C@H](O)Cn1ccc(-c2cc(O[C@@H](C)[C@@H]3CCCN3C)nc(-c3noc4c3CCC[C@@]43CCCc4sc(N)c(C#N)c43)n2)n1 [II-112] | 2250 | 5.9 | <24 | 11 | 5.6
19 | C[C@H](Oc1cc(-n2cc(Cn3ccnc3)nn2)nc(-c2noc3c2CCC[C@@]32CCCc3sc(N)c(C#N)c32)n1)[C@@H]1CCCN1C [II-113] | 2010 | 1.1 | 43 | 25 | 30.9
20 | COC(=O)c1ccc(-c2cc(O[C@@H](C)[C@@H]3CCCN3C)nc(-c3noc4c3CCC[C@@]43CCCc4sc(N)c(C#N)c43)n2)o1 [II-114] | 2300 | – | 34 | 16 | 0.9
